# Data from PubChem BioAssay AID1259407 (Chemical Carcinogenesis Research Information System (CCRIS), 2018).
# Active and inactive are the calls of the source. The rule behind the calls is not given here.
# Test system: CCRIS mutagenicity, Ames/micronucleus/aberration tests
# Assay: CCRIS mutagenicity studies
# [1] = Test System: AMES SALMONELLA TYPHIMURIUM, Strain/Indicator: TA98, Metabolic Activation: NONE, Method: STANDARD PLATE
# [2] = Test System: AMES SALMONELLA TYPHIMURIUM, Strain/Indicator: TA100, Metabolic Activation: NONE, Method: STANDARD PLATE
# [3] = Test System: AMES SALMONELLA TYPHIMURIUM, Strain/Indicator: TA100, Metabolic Activation: S-9, Method: STANDARD PLATE
compound,measurement,setting,value
CC1(C)CO1,mutagenic call,"Test System: AMES SALMONELLA TYPHIMURIUM, Strain/Indicator: TA100, Metabolic Activation: NONE, Method: FLASK ASSAY",active; positive
same,mutagenic call,"Test System: AMES SALMONELLA TYPHIMURIUM, Strain/Indicator: TA100, Metabolic Activation: NONE, Method: FLASK VAPORIZATION",active; positive
same,mutagenic call,"Test System: AMES SALMONELLA TYPHIMURIUM, Strain/Indicator: TA100, Metabolic Activation: RAT, LIVER, S-9, AROCLOR 1254, Method: FLASK ASSAY",active; positive
same,mutagenic call,"Test System: AMES SALMONELLA TYPHIMURIUM, Strain/Indicator: TA100, Metabolic Activation: RAT, LIVER, S-9, AROCLOR 1254, Method: FLASK VAPORIZATION",active; positive
same,mutagenic call,"Test System: AMES SALMONELLA TYPHIMURIUM, Strain/Indicator: TA102, Metabolic Activation: NONE, Method: FLASK ASSAY",active; positive
same,mutagenic call,"Test System: AMES SALMONELLA TYPHIMURIUM, Strain/Indicator: TA102, Metabolic Activation: RAT, LIVER, S-9, AROCLOR 1254, Method: FLASK ASSAY",active; positive
same,mutagenic call,"Test System: AMES SALMONELLA TYPHIMURIUM, Strain/Indicator: TA1535, Metabolic Activation: NONE, Method: FLASK ASSAY",active; positive
same,mutagenic call,"Test System: AMES SALMONELLA TYPHIMURIUM, Strain/Indicator: TA1535, Metabolic Activation: NONE, Method: FLASK VAPORIZATION",active; positive
same,mutagenic call,"Test System: AMES SALMONELLA TYPHIMURIUM, Strain/Indicator: TA1535, Metabolic Activation: RAT, LIVER, S-9, AROCLOR 1254, Method: FLASK ASSAY",active; positive
same,mutagenic call,"Test System: AMES SALMONELLA TYPHIMURIUM, Strain/Indicator: TA1535, Metabolic Activation: RAT, LIVER, S-9, AROCLOR 1254, Method: FLASK VAPORIZATION",active; positive
O=C(O)c1cn(C2CC2)c2cc(N3CCNCC3)c(F)cc2c1=O,mutagenic call,"End Point: In vitro micronucleus, Test System: WTK-1 human lymphoma cells, Metabolic Activation: None",inactive; negative
same,mutagenic call,"Test System: AMES SALMONELLA TYPHIMURIUM, Strain/Indicator: HISC3076, Metabolic Activation: NONE, Method: STANDARD PLATE",inactive; negative
same,mutagenic call,"Test System: AMES SALMONELLA TYPHIMURIUM, Strain/Indicator: HISD3052, Metabolic Activation: NONE, Method: STANDARD PLATE",active; positive
same,mutagenic call,"Test System: AMES SALMONELLA TYPHIMURIUM, Strain/Indicator: HISG428, Metabolic Activation: NONE, Method: STANDARD PLATE",inactive; negative
same,mutagenic call,"Test System: AMES SALMONELLA TYPHIMURIUM, Strain/Indicator: TA92, Metabolic Activation: NONE, Method: STANDARD PLATE",active; positive
same,mutagenic call,"Test System: AMES SALMONELLA TYPHIMURIUM, Strain/Indicator: TA94, Metabolic Activation: NONE, Method: STANDARD PLATE",active; positive
same,mutagenic call,"Test System: AMES SALMONELLA TYPHIMURIUM, Strain/Indicator: TA102, Metabolic Activation: NONE, Method: STANDARD PLATE",active; positive
same,mutagenic call,"Test System: AMES SALMONELLA TYPHIMURIUM, Strain/Indicator: TA103, Metabolic Activation: NONE, Method: STANDARD PLATE",active; positive
same,mutagenic call,"Test System: AMES SALMONELLA TYPHIMURIUM, Strain/Indicator: TA104, Metabolic Activation: NONE, Method: STANDARD PLATE",inactive; negative
same,mutagenic call,"Test System: AMES SALMONELLA TYPHIMURIUM, Strain/Indicator: TA2425, Metabolic Activation: NONE, Method: STANDARD PLATE",active; positive
same,mutagenic call,"Test System: AMES SALMONELLA TYPHIMURIUM, Strain/Indicator: TA2638, Metabolic Activation: NONE, Method: STANDARD PLATE",active; positive
same,mutagenic call,"Test System: AMES SALMONELLA TYPHIMURIUM, Strain/Indicator: TA2661, Metabolic Activation: NONE, Method: STANDARD PLATE",inactive; negative
same,mutagenic call,"Test System: AMES SALMONELLA TYPHIMURIUM, Strain/Indicator: TA2662, Metabolic Activation: NONE, Method: STANDARD PLATE",active; positive
same,mutagenic call,"Test System: AMES SALMONELLA TYPHIMURIUM, Strain/Indicator: TA2678, Metabolic Activation: NONE, Method: STANDARD PLATE",inactive; negative
same,mutagenic call,"Test System: CHINESE HAMSTER V-79, Strain/Indicator: V-79 (HPRT)/6-THIOGUANINE, Metabolic Activation: NONE",active; positive
same,mutagenic call,"Test System: MOUSE LYMPHOMA, Strain/Indicator: L5178Y (TK+/TK-), Metabolic Activation: NONE, Method: FLUCTUATION TEST",active; positive
CC1(C)C[C@@H]2[C@@]3(C(=O)O)C[C@@]3(C=O)C(C=O)=C[C@]2(O)C1,mutagenic call,"Test System: CHINESE HAMSTER V-79, Strain/Indicator: V-79/6-THIOGUANINE (HGPRT), Metabolic Activation: NONE",inactive; negative
CC1CCOB(OCCC(C)OB2OCCC(C)O2)O1 (stereo not drawn),mutagenic call,"Test System: MOUSE LYMPHOMA, Strain/Indicator: L5178Y (TK+/TK-), Metabolic Activation: NONE, Method: SUSPENSION/PLATE",inactive; negative. reevaluation of results: negative
same,mutagenic call,"Test System: MOUSE LYMPHOMA, Strain/Indicator: L5178Y (TK+/TK-), Metabolic Activation: RAT, LIVER, S-9, AROCLOR 1254, Method: SUSPENSION/PLATE",inactive; negative. reevaluation of results: negative
COc1cccc(/C=C/c2ccc([N+](=O)[O-])cc2)c1,mutagenic call,"Test System: AMES SALMONELLA TYPHIMURIUM, Strain/Indicator: TA98(NR), Metabolic Activation: NONE, Method: STANDARD PLATE",active; positive
same,mutagenic call,"Test System: AMES SALMONELLA TYPHIMURIUM, Strain/Indicator: TA98(NR), Metabolic Activation: S-9, Method: STANDARD PLATE",active; positive
same,mutagenic call,[1],active; positive
same,mutagenic call,"Test System: AMES SALMONELLA TYPHIMURIUM, Strain/Indicator: TA98, Metabolic Activation: S-9, Method: STANDARD PLATE",active; positive
same,mutagenic call,"Test System: AMES SALMONELLA TYPHIMURIUM, Strain/Indicator: TA100 (NR), Metabolic Activation: NONE, Method: STANDARD PLATE",active; positive
same,mutagenic call,"Test System: AMES SALMONELLA TYPHIMURIUM, Strain/Indicator: TA100 (NR), Metabolic Activation: S-9, Method: STANDARD PLATE",active; positive
same,mutagenic call,[2],active; positive
same,mutagenic call,[3],active; positive
CN(C)CCNC(=O)c1ccc2c(N)c3ccccc3nc2c1,mutagenic call,"Test System: AMES SALMONELLA TYPHIMURIUM, Strain/Indicator: TA1537, Metabolic Activation: NONE, Method: STANDARD PLATE",inactive; negative
O[C@@H]([C@H](O)[C@H](O)CBr)[C@H](O)CBr,mutagenic call,[1],inactive; negative
same,mutagenic call,[2],inactive; negative
same,mutagenic call,[3],active; positive
same,mutagenic call,"Test System: E. COLI, Strain/Indicator: WP2 (HCR), Metabolic Activation: NONE, Method: STANDARD PLATE",inactive; negative
same,mutagenic call,"Test System: E. COLI, Strain/Indicator: WP2 (HCR), Metabolic Activation: S-9, Method: STANDARD PLATE",active; positive
Oc1ccc(Cc2ccccc2O)cc1,mutagenic call,"Test System: AMES SALMONELLA TYPHIMURIUM, Strain/Indicator: TA98, Metabolic Activation: NONE, Method: PREINCUBATION",inactive; negative
same,mutagenic call,"Test System: AMES SALMONELLA TYPHIMURIUM, Strain/Indicator: TA98, Metabolic Activation: RAT LIVER S-9, PHENOBARBITAL AND BETA-NAPHTHOFLAVONE, Method: PREINCUBATION",inactive; negative
same,mutagenic call,"Test System: AMES SALMONELLA TYPHIMURIUM, Strain/Indicator: TA100, Metabolic Activation: NONE, Method: PREINCUBATION",inactive; negative
same,mutagenic call,"Test System: AMES SALMONELLA TYPHIMURIUM, Strain/Indicator: TA100, Metabolic Activation: RAT LIVER S-9, PHENOBARBITAL AND BETA-NAPHTHOFLAVONE, Method: PREINCUBATION",inactive; negative
same,mutagenic call,"Test System: AMES SALMONELLA TYPHIMURIUM, Strain/Indicator: TA1535, Metabolic Activation: NONE, Method: PREINCUBATION",inactive; negative
same,mutagenic call,"Test System: AMES SALMONELLA TYPHIMURIUM, Strain/Indicator: TA1535, Metabolic Activation: RAT LIVER S-9, PHENOBARBITAL AND BETA-NAPHTHOFLAVONE, Method: PREINCUBATION",inactive; negative
same,mutagenic call,"Test System: AMES SALMONELLA TYPHIMURIUM, Strain/Indicator: TA1537, Metabolic Activation: NONE, Method: PREINCUBATION",inactive; negative
same,mutagenic call,"Test System: AMES SALMONELLA TYPHIMURIUM, Strain/Indicator: TA1537, Metabolic Activation: RAT LIVER S-9, PHENOBARBITAL AND BETA-NAPHTHOFLAVONE, Method: PREINCUBATION",inactive; negative
same,mutagenic call,"Test System: E.COLI, Strain/Indicator: WP2UVRA/PKM101, Metabolic Activation: NONE, Method: PREINCUBATION",inactive; negative
same,mutagenic call,"Test System: E.COLI, Strain/Indicator: WP2UVRA/PKM101, Metabolic Activation: RAT LIVER S-9, PHENOBARBITAL AND BETA-NAPHTHOFLAVONE, Method: PREINCUBATION",inactive; negative
